# “Also recorded” adds a separate entry of the source. Numbered stars: 1 amine (or outer) side, 2 acyl side, 3 side chain; on linkers, the order of the positions; unused ones are H or OH. * marks the point of attachment. AMC = Cc1cc(=O)oc2cc(N*)ccc12; Suc = O=C(CCC(=O)[*:2])[*:1]; Cbz = O=C(OCc1ccccc1)*
# Key:
# [1] = test system: recombinant LmHslV; assay: LmHslV peptidase activation by HslU C-terminal peptides, substrate Z-EVNL-AMC (JMV4482); format: biochemical, Leishmania major; settings: for LmHslV activation, Ala-scan, D-scan and truncations, relative to LmC12-U2: LmHslV 2 μg, 30 min at 37 °C, JMV4482 (Z-EVNL-AMC) 100 μM, Figure 4; for LmHslV activation relative to reference peptide 10 (LmC12-U2) / Potency of LmHslV activation relative to LmC12-U2: LmHslV 75.2 nM, Figure 3; for LmHslV activation relative to reference peptide 10 (LmC12-U2): initial velocity normalised to 10 = 100%
# Procedure: (§1) Activity assay: The peptidase activity of recombinant LmHslV was assessed by measuring the fluorescence of AMC released after hydrolysis of the fluorogenic substrates Z-GGL-AMC or JMV4482 (Z-EVNL-AMC), 100 µM. LmHslV activation was obtained by addition of activating peptides (see type and concentration in the figure legends). Activity buffer: 25 mM Tris-HCl pH 8.0, 1 mM DTT, 0.5 mM EDTA and 5 mM MgCl2. Most of the experiments were performed in a final volume of 50 µL in black 96-well microplates (Fisher Scientific, Illkirch, France. Fluorescence was measured using a spectrofluorimeter (BIO-TEK Instrument, Inc., Winooski, VT, USA): filters 360/340 for excitation and 460/440 for emission.
# Figure 3 Both peptides derived from the C-terminal end of either LmHslU1 or LmHslU2 and analogues from other microorganisms are able to support LmHslV activation. LmHslV (75,2nM) was incubated at 37 °C with the peptide substrate Z-EVNL-AMC (100 μM) in the presence of peptides 8–11 and 1–15 (500 μM). A scrambled version of LmC12-U2 (44) was also included. The fluorescence of the free AMC group, proportional to the activity of the sample, was measured at 2 min. intervals.
# Figure 4 Sequence requirements for activation of LmHslV by C-terminal LmHslU2 peptides. (A) Alascan. Percentage of initial velocity relative to compound LmC12-U2. Fluorescence was measured for 30 min incubation at 37 °C of LmHslV (2 μg) with 100 μM JMV4482 (Z-EVNL-AMC) in the presence of 500 μM peptides. (B) D-scan. Percentage of initial velocity relative to compound LmC12-U2. Activity was measured as in (A). (C) Truncated peptides. Percentage of activity relative to compound LmC12-U2, measured as in (A).
# Figure 5 Effect of conformational constraints on HslV activation by HslU C-terminal peptides. HslV activity was measured in the presence of various cyclic analogues of LmC12-U2 and LmC9-U2. Values are expressed as percentage of initial velocity relative to compound LmC12-U2.
# Figure S3. Effect of LmC12-U2 dimerization. LmHslV has been incubated at 37°C for 30 min with […]
# the substrate Z-EVNL-AMC (100µM). The fluorescence generated by the cleavage of the substrate was recorded at 5 min intervals. The dotted line represents the ratio at each time point between the fluorescence values obtained with the two peptides.
# (also on this page, place not known: dimerization . ( 12), Di-C12 / C12 Fluorescence (arbitrary unit) Ratio)
# [2] = Circular dichroism, α-helix content from θ at 222 nm; format: physicochemical; settings: for Helicity%: 25 mM Tris-HCl pH 8.0, 20 °C, 100% helicity for θ = −36,000; for θmre at 222 nm: 25 mM Tris-HCl pH 8.0, around 200 μM peptide, 20 °C, 1 mm cuvette, 3 scans
# Procedure: CD spectra (Figure S2) were recorded on a JASCO J-815 spectropolarimeter from 190 to 260 nm (data pitch of 0.1 nm, continuous scanning mode, 200 nm/min, 3 scans) at 20 °C, using a 1 mm path length cuvette. Baseline was corrected by subtracting the background from the sample spectrum.
# Peptides were solubilised in 50 mM Tris-HCl, pH 8.0 buffer at an estimated concentration of 400 μM according to their apparent molecular mass (i.e. M + xTFA with x = number of basic groups). The solutions were then diluted twice (25 mM Tris and around 200 μM peptides final concentrations) with: […]
# [3] = test system: recombinant LmHslV; assay: LmHslV peptidase activation by HslU C-terminal peptides, substrate Z-GGL-AMC; format: biochemical, Leishmania major; settings: in words; for Activation of LmHslV (AMC fluorescence liberated per minute): LmHslV 300 nM, 37 °C, Z-GGL-AMC 100 μM, peptide 2.2 mM, read every 15 min for 2 h, mean of two replicates, Figure 1
# Procedure: as §1
# Figure 1 Activation of LmHslV by HslU-derived peptides. (A) Activation of LmHslV by peptides corresponding to the 8 C-terminal residues of LmHslU1 (compound 1) and U2 (compound 4). LmHslV (300 nM) was incubated at 37 °C with the peptide substrate Z-GGL-AMC (100μM) in the presence of vehicle (left) or 2.2 mM of the peptides H-LmC8-U1 or Ac-LmC8-U2. The fluorescence of the free AMC group liberated by hydrolysis of the substrate, which is proportional to the proteolytic activity of the sample, was measured every 15 min for 2 h. The activity is calculated as fluorescence units liberated by the minute during the linear period of the assay. The values are the mean of two experimental replicates for a representative experiment; errors bars represent deviation from the mean of the values. (B) LmHslV can also be activated by octapeptides derived from the C-terminus of […] from E. coli. Assays were performed as in (A), using compounds 4 (Ac-LmC8-U2), 6 (H-EcC8-U) and 7 (Ac-EcC8-U).
# [4] = test system: LmHslV; assay: Degradation of fluorogenic substrates by LmC12-U2-activated LmHslV; format: biochemical, Leishmania major; settings: LmHslV 75.2 nM, 37 °C, substrate 100 μM, activating peptide LmC12-U2 500 μM; Figure 2; in words
# Procedure: as §1
# Figure 2 Degradation of different fluorogenic substrates by LmHslV. LmHslV (75.2 nM) was incubated at 37 °C with different fluorogenic substrates (100 μM) in the presence of the activating peptide LmC12-U2 (500 μM). The fluorescence of the free AMC group, proportional to the activity of the sample, was measured at 2 min. intervals. With each substrate, no activity was measured in the absence of activating peptide: for the sake of clarity, only the negative control values obtained with the substrate ZGGL-AMC are shown.
# [5] = substrate Z-EVNL-AMC, Figure 5, in words
# [6] = 37 °C, Z-EVNL-AMC 100 μM, peptide 500 μM, in words
# [7] = 37 °C, Z-EVNL-AMC 100 μM, peptide 500 μM
substance,measurement,setting,value
H-arg-O2Oc-Leu-Gln-Lys-c[Asp-Val-Asn-Leu-Lys]-Lys-Tyr-Leu-Leu-OH (sidechain bridge or staple) [Compound 37],LmHslV activation by cyclic analogues relative to reference peptide 10,[1]; [5],the more potent cyclic analogue
same,Helicity%,[2]; 0% TFE,5%
same,θmre at 222 nm,[2]; 0% TFE,−1626 deg.cm^2.dmol^−1
same,Helicity%,[2]; 25% TFE,17%
same,θmre at 222 nm,[2]; 25% TFE,−6143 deg.cm^2.dmol^−1
same,θmre at 222 nm,[2]; 50% TFE,−7628 deg.cm^2.dmol^−1
H-arg-O2Oc-Leu-Gln-Lys-Asn-Val-Asn-Leu-Ala-Lys-Tyr-Leu-Leu-OH [Compound 10],Activation of LmHslV compared with LmC8-U2 peptide 4,"[3]; substrate Z-GGL-AMC, preliminary experiments",much more efficiently than the LmC8-U2 peptide 4
same,"LmHslV activation, Ala-scan, D-scan and truncations, relative to LmC12-U2","[1]; peptide 500 μM, in words",by far the most potent activator
H-arg-O2Oc-Leu-Gln-Lys-c[Asp-Val-Asn-Leu-Orn]-Lys-Tyr-Leu-Leu-OH (sidechain bridge or staple) [Compound 41],LmHslV activation by cyclic analogues relative to reference peptide 10,[1]; [5],activity decreased
H-arg-O2Oc-Leu-Gln-Lys-Asn-Val-Asn-leu-Ala-Lys-Tyr-Leu-Leu-OH [Compound 23],"LmHslV activation, Ala-scan, D-scan and truncations, relative to LmC12-U2","[1]; peptide 500 μM, in words",no activity
H-VDIKKFIL-OH [Compound 1],Activation of LmHslV (AMC fluorescence liberated per minute),[3],able to activate the protease
H-arg-O2Oc-Leu-Gln-Lys-Asn-Val-Asn-Leu-ala-Lys-Tyr-Leu-Leu-OH [Compound 24],"LmHslV activation, Ala-scan, D-scan and truncations, relative to LmC12-U2","[1]; peptide 500 μM, in words",residual activity
same,Decrease in activity relative to LmC12-U2,"[1]; Z-EVNL-AMC 100 μM, peptide 500 μM, D-scan",80%
H-arg-O2Oc-c[Asp-Val-Asn-Leu-Lys]-Lys-Tyr-Leu-Leu-OH (sidechain bridge or staple) [Compound 43],LmHslV activation by cyclic analogues relative to reference peptide 10,[1]; [5],almost as active as the reference peptide 10; also recorded: did not reduce the activity compared to LmC12-U2 (10)
same,Helicity%,[2]; 0% TFE,6%
same,θmre at 222 nm,[2]; 0% TFE,−2225 deg.cm^2.dmol^−1
same,Helicity%,[2]; 25% TFE,14%
same,θmre at 222 nm,[2]; 25% TFE,−5026 deg.cm^2.dmol^−1
same,Helicity%,[2]; 50% TFE,14%
same,θmre at 222 nm,[2]; 50% TFE,−5140 deg.cm^2.dmol^−1
H-arg-O2Oc-Asn-Leu-Tyr-Lys-Leu-Val-Gln-Leu-Leu-Asn-Lys-Ala-OH [Compound 44],LmHslV activation relative to reference peptide 10 (LmC12-U2),[1]; [6],no activity
H-arg-O2Oc-Leu-Met-Asn-Asn-Ile-Asp-Leu-Ala-Lys-Tyr-Ile-Leu-OH [Compound 13],Potency of LmHslV activation relative to LmC12-U2,[1]; [7],twice
H-arg-O2Oc-Phe-Ile-Lys-Gln-Tyr-Asp-Leu-Lys-Lys-Tyr-Ile-Ile-OH [Compound 14],Potency of LmHslV activation relative to LmC12-U2,[1]; [7],1.5 fold
Ac-EDLSRFIL-OH [Compound 7],Activation of LmHslV (AMC fluorescence liberated per minute),[3],also found to activate LmHslV
"1,2,3-Triazole-1,4 = [CH2CH2CO-(O2Oc)3-Leu-Gln-Lys-Asn-Val-Asn-Leu-Ala-Lys-Tyr-Leu-Leu-OH]2 [Compound 12]",HslV activity with dimer relative to monomer 10,"[1]; LmHslV, 37 °C, 30 min, peptide 550 μM, Z-EVNL-AMC 100 μM, Figure S3, in words",about twice that reached with the monomer
H-EDLSRFIL-OH [Compound 6],Activation of LmHslV (AMC fluorescence liberated per minute),[3],also found to activate LmHslV
Ac-VNLAKYLL-OH [Compound 4],Activation of LmHslV (AMC fluorescence liberated per minute),[3],robust activation
H-arg-O2Oc-Leu-Val-Ala-Asp-Glu-Asp-Leu-Ser-Arg-Phe-Ile-Leu-OH [Compound 15],LmHslV activation relative to reference peptide 10 (LmC12-U2),[1]; [6],as potent as LmC12-U2
H-arg-O2Oc-Leu-Gln-Lys-c[Asp-Val-Asn-Leu-lys]-Lys-Tyr-Leu-Leu-OH (sidechain bridge or staple) [Compound 39],LmHslV activation by cyclic analogues relative to reference peptide 10,[1]; [5],much more potent than the linear compound 24
H-arg-O2Oc-Leu-Gln-Lys-c[asp-Val-Asn-Leu-lys]-Lys-Tyr-Leu-Leu-OH (sidechain bridge or staple) [Compound 40],Relative potency: percentage of initial velocity relative to LmC12-U2,"[1]; cyclic analogues, substrate Z-EVNL-AMC, Figure 5",55%
H-arg-O2Oc-Leu-Gln-Lys-Asn-Val-Asn-Leu-Ala-Lys-Phe-Leu-Leu-OH [Compound 11],LmHslV activation relative to reference peptide 10 (LmC12-U2),[1]; [6],decreased activity; also recorded: reverse effect
H-arg-O2Oc-Met-Val-Lys-Lys-Val-Asp-Ile-Lys-Lys-Tyr-Ile-Leu-OH [Compound 9],LmHslV activation relative to reference peptide 10 (LmC12-U2),[1]; [6],increase in activity; also recorded: large increase in potency
H-arg-O2OC-Asn-Val-Asn-Leu-Ala-Lys-Tyr-Leu-Leu-OH [Compound 29],Helicity%,[2]; 0% TFE,5%
same,θmre at 222 nm,[2]; 0% TFE,−1711 deg.cm^2.dmol^−1
same,Helicity%,[2]; 25% TFE,11%
same,θmre at 222 nm,[2]; 25% TFE,−4130 deg.cm^2.dmol^−1
same,Helicity%,[2]; 50% TFE,13%
same,θmre at 222 nm,[2]; 50% TFE,−4733 deg.cm^2.dmol^−1
Suc-LLVY-{AMC},Degradation of fluorogenic substrate by activated LmHslV,[4],degraded by peptide-activated LmHslV
Cbz-Gly-Gly-Leu-{AMC},Degradation of fluorogenic substrate by activated LmHslV,[4],degraded by peptide-activated LmHslV
H-arg-O2Oc-Leu-Gln-Lys-c[Asp-Val-Asn-Leu-Dap]-Lys-Tyr-Leu-Leu-OH (sidechain bridge or staple) [Compound 42],LmHslV activation by cyclic analogues relative to reference peptide 10,[1]; [5],almost half as active as the reference peptide
